In paper PMC7533260, “Design and tests of prospective property predictions for novel antimalarial 2-aminopropylaminoquinolones” (Journal of Computer-Aided Molecular Design, 2020) one finds Ki and IC50 data, which are given here for 67 molecules.

Like-named read-outs stand apart in the source and are kept apart here.

Assay [1] concerns the target T1, s-PfDHODH (Plasmodium falciparum, UniProt Q08210).
T1 sequence (Q08210 158-569 limits assumed): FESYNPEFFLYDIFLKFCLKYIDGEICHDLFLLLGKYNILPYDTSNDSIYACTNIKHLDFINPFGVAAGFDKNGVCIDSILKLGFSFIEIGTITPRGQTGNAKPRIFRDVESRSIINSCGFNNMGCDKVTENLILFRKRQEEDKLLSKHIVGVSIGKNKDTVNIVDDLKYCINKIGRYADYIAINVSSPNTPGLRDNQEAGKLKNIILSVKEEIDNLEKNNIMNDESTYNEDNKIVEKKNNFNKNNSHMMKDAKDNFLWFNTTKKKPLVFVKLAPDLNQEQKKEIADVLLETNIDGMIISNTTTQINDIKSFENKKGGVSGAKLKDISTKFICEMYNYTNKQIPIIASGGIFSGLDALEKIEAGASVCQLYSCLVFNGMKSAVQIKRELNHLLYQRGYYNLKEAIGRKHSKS
Nature of the assay: Literature inhibition data for soluble recombinant PfDHODH (s-PfDHODH), dodecylubiquinone as substrate. The format is biochemical. The text has this:
Data on PfDHODH inhibition were collected from the literature for a structurally diverse group of compounds. These included triazolopyrimidines, diphenylureas, and 2-cyano-3-hydroxy acrylanilides, among others. Quantitative data were not available for inhibition of the intact enzyme, which is bound to the mitochondrial membrane by its hydrophobic N-terminus in vivo [16]. […] The very low solubility of CoQ-10 limits its utility in vitro, so an artificial ubiquinone (dodecylubiquinone [DQ]) is usually used as substrate instead.
The IC50 data for these 89 compounds were converted to inhibition constants (Ki’s) by assuming competitive inhibition against DQ and applying the method described by Cheng and Prusoff. Two artificial neural network ensemble (ANNE) regression models were constructed (henceforth referred to as Model A and Model B) using ADMET Modeler™ module of ADMET Predictor® [18]. The models were built on distinct 20% hold-out test sets (see Supplementary Methods for details).

Assay [2] has as its target T1, s-PfDHODH. Also on record: method as in earlier work. Particulars: literature data used to construct QSAR models; cited from earlier work.
Setting [3] is: converted from literature IC50 assuming competitive inhibition against DQ (Cheng and Prusoff), read-out: PfDHODH Ki.

In general, Ki refers to a dissociation constant, usually derived from enzyme kinetics or from competition with a known ligand. On to `O=C(Nc1ccc(Cl)cc1Cl)c1ccc2ccccc2c1` [Compound B01], for which, in assay [1], the Ki was found to be 30 nM.
Still for that read-out and setting: for `O=C(Nc1ccccc1F)c1ccc2ccccc2c1` [Compound B03] the value was 200 nM.
Same read-out and setting: to `Cc1c(C(=O)Nc2cccc(Br)c2)cccc1[N+](=O)[O-]` [Compound B04] belongs 20 nM; to `Cc1c(C(=O)Nc2ccc(F)c(Cl)c2)cccc1[N+](=O)[O-]` [Compound B05], 40 nM.
Take `Cc1c(C(=O)Nc2cc(Cl)cc(Cl)c2)cccc1[N+](=O)[O-]` [Compound B06]: in assay [1] (setting [3]), the inhibition constant (Ki) was 10 nM.
For the molecule `Cc1c(C(=O)Nc2ccc(F)c(F)c2)cccc1[N+](=O)[O-]` [Compound B07], the Ki in assay [1] turned out to be 140 nM.
On the same count and under the same terms, to `Cc1c(C(=O)Nc2cccc3ccccc23)cccc1[N+](=O)[O-]` [Compound B08] belongs 30 nM; to `Cc1c(C(=O)Nc2ccc(Cl)c(Cl)c2)cccc1[N+](=O)[O-]` [Compound B09], 40 nM.
Consider `Cc1c(C(=O)Nc2cccc(C(F)(F)F)c2)cccc1[N+](=O)[O-]` [Compound B10], for which the Ki in assay [1] worked out at 40 nM.
In the case of `O=C(Nc1ccccc1C(F)(F)F)Nc1cccc2ccccc12` [Compound B11], the Ki in assay [1] stood at 180 nM.
On the same count and under the same terms, to `COc1ccccc1NC(=O)Nc1cccc2ccccc12` [Compound B12] belongs 120 nM; to `O=C(Nc1ccc(Cl)cc1)Nc1cccc2cccnc12` [Compound B13], 540 nM.
As a reminder, the IC50 is the concentration that gives 50% inhibition. For `N#C/C(C(=O)Nc1ccc(C(F)(F)F)cc1)=C(/O)C1CC1` [Compound D04], the IC50 in assay [2] is 92.5 µM. For the same molecule, the Ki in assay [1] (setting [3]) was found to be 11000 nM.
Regarding `C/C(O)=C(/C#N)C(=O)Nc1ccc(-c2ccccc2)cc1` [Compound D10], the IC50 in assay [2] is 25.7 µM. The Ki in assay [1] was found to be 3000 nM.
For the molecule `Cc1cc(Nc2cccc(F)c2)n2ncnc2n1` [Compound G13], in assay [1] (setting [3]), the Ki came to 3680 nM.
Same read-out and setting: to `Cc1cc(Nc2cccc(Cl)c2)n2ncnc2n1` [Compound G14] belongs 560 nM.
Still for that read-out and setting: for `Cc1cccc(Nc2cc(C)nc3ncnn23)c1` [Compound G15] the value was 1960 nM; for `Cc1cc(Nc2cccc(C(F)(F)F)c2)n2ncnc2n1` [Compound G16], 5600 nM.
Same read-out and setting: for `Cc1cc(Nc2ccc(F)cc2)n2ncnc2n1` [Compound G17] the value was 7600 nM; for `Cc1cc(Nc2ccc(Cl)cc2)n2ncnc2n1` [Compound G18], 640 nM.
`Cc1cc(Nc2ccc(Br)cc2)n2ncnc2n1` [Compound G19]: the Ki in assay [1] (setting [3]) turned out to be 310 nM.
The same measure, in the same setting: to `Cc1ccc(Nc2cc(C)nc3ncnn23)cc1` [Compound G20] belongs 1680 nM.
Still for that read-out and setting: for `COc1ccc(Nc2cc(C)nc3ncnn23)cc1` [Compound G22] the value was 1840 nM.
For the molecule `Cc1cc(Nc2ccc(OC(F)(F)F)cc2)n2ncnc2n1` [Compound G23], the inhibitory constant (Ki) in assay [1] (setting [3]) was 480 nM.
Still for that read-out and setting: to `Cc1cc(Nc2ccc(OC(F)F)cc2)n2ncnc2n1` [Compound G24] belongs 1120 nM; to `Cc1cc(Nc2ccc([N+](=O)[O-])cc2)n2ncnc2n1` [Compound G25], 1720 nM; to `Cc1cc(Nc2ccc(-c3ccccc3)cc2)n2ncnc2n1` [Compound G26], 2120 nM.
As to `Cc1cc(Nc2ccc(Cc3ccccc3)cc2)n2ncnc2n1` [Compound G27], the Ki in assay [1] (setting [3]) was 880 nM.
Regarding `Cc1cc(Nc2ccc(F)c(F)c2F)n2ncnc2n1` [Compound G31], the inhibitory constant (Ki) in assay [1] (setting [3]) turned out to be 11600 nM.
On the same count and under the same terms, for `Cc1cc(Nc2cc(F)c(F)cc2F)n2ncnc2n1` [Compound G32] the value was 6800 nM.
Consider `Cc1ccc(Nc2cc(C)nc3ncnn23)c(F)c1` [Compound G36], for which, in assay [1] (setting [3]), the Ki was found to be 10800 nM.
The same measure, in the same setting: to `Cc1cc(Nc2ccc(F)c(F)c2)n2ncnc2n1` [Compound G37] belongs 3200 nM; to `Cc1cc(Nc2cc(F)cc(F)c2)n2ncnc2n1` [Compound G38], 3760 nM.
`Cc1cc(Nc2ccc(F)c(C)c2)n2ncnc2n1` [Compound G40]: the Ki in assay [1] (setting [3]) stood at 1840 nM.
On the same count and under the same terms, to `Cc1cc(Nc2ccc(Cl)c(C(F)(F)F)c2)n2ncnc2n1` [Compound G41] belongs 320 nM; to `Cc1cc(Nc2ccc(Br)c(C(F)(F)F)c2)n2ncnc2n1` [Compound G42], 180 nM.
`Cc1cc(Nc2ccc(C)c(C(F)(F)F)c2)n2ncnc2n1` [Compound G43]: the Ki in assay [1] (setting [3]) amounted to 620 nM.
Still for that read-out and setting: for `Cc1cc(Nc2ccc(C)c(C)c2)n2ncnc2n1` [Compound G44] the value was 140 nM.
As for `Cc1cc(Nc2ccc(C#N)c(C(F)(F)F)c2)n2ncnc2n1` [Compound G45], the inhibition constant Ki in assay [1] came to 1960 nM.
With `Cc1cc(Nc2ccc(C)c(F)c2)n2ncnc2n1` [Compound G46], in assay [1] (setting [3]), the Ki was 340 nM.
Still for that read-out and setting: for `Cc1ccccc1/C=C/c1cc(O)c2ccccc2n1` [Compound P01] the value was 400 nM.
On the same count and under the same terms, for `CCCCCC1CCCc2c1nc1ccccc1c2O` (stereo not drawn) [Compound P02] the value was 150 nM.
On to `CCCNC(=O)c1ccc(-n2c(C)cc3ccccc32)s1` [Compound P03], for which the Ki in assay [1] was found to be 20 nM.
With `O=C(NC1CC1)c1ccc(N2CCSc3ccccc32)s1` [Compound P04], the Ki in assay [1] (setting [3]) is 110 nM.
With `CCCNC(=O)c1ccc(-n2ccc3ccccc32)s1` [Compound P06], in assay [1], the Ki amounted to 200 nM.
Turning to `CCCNC(=O)c1ccc(-n2cnc3ccccc32)s1` [Compound P10], the Ki in assay [1] (setting [3]) turned out to be 300 nM.
The same measure, in the same setting: for `CCCNC(=O)c1ccc(-n2c(C)nc3ccccc32)s1` [Compound P11] the value was 70 nM.
Regarding `CCOC(=O)C(=CNc1ccc2sc3ccccc3c2c1)C(=O)OCC` [He05], in assay [1], the inhibition constant (Ki) was 20 nM.
Same read-out and setting: for `CCOC(=O)/C(C#N)=C\Nc1ccc2c(c1)c1ccccc1n2CC` [He06] the value was 50 nM.
In the case of `CCOC(=O)C(=CNc1ccc2[nH]ncc2c1)C(=O)OCC` [He07], in assay [1] (setting [3]), the Ki was found to be 3200 nM.
For the molecule `CCOC(=O)C(=CNc1ccc(C)cc1)C(=O)OCC` [He08], in assay [1], the inhibitory constant (Ki) was found to be 4600 nM.
Still for that read-out and setting: to `CCOC(=O)C(=CNc1ccccc1C)C(=O)OCC` [He09] belongs 39700 nM; to `CCOC(=O)C(=CNc1ccc2[nH]cnc2c1)C(=O)OCC` [He10], 40200 nM.
Still for that read-out and setting: to `CCOC(=O)C(=CNc1cccc(-c2ccccc2)c1)C(=O)OCC` [He14] belongs 10000 nM.
For `FC(F)(F)c1cc(Nc2ccc3ccccc3c2)n2ncnc2n1` [Tz08], the Ki in assay [1] (setting [3]) worked out at 80 nM.
As to `CCc1cc(Nc2ccc3ccccc3c2)n2ncnc2n1` [Tz09], the Ki in assay [1] (setting [3]) was 80 nM.
Regarding `Cc1nc2ncnn2c(Nc2ccc3ccccc3c2)c1C` [Tz10], the Ki in assay [1] (setting [3]) was determined as 60 nM.
Same read-out and setting: to `Cc1cc(N(C)c2ccc3ccccc3c2)n2ncnc2n1` [Tz11] belongs 1200 nM; to `Cc1cc(N(Cc2ccccc2)c2ccc3ccccc3c2)n2ncnc2n1` [Tz12], 37200 nM.
Turning to `Cc1cc(Nc2ccc(C(N)=O)cc2)n2ncnc2n1` [Tz13], the Ki in assay [1] worked out at 80000 nM.
As for `Cc1cc(Nc2cnc3ccccc3c2)n2ncnc2n1` [Tz14], in assay [1] (setting [3]), the Ki came to 680 nM.
On the same count and under the same terms, to `Cc1cc(Nc2ccc3ncccc3c2)n2ncnc2n1` [Tz15] belongs 480 nM.
Still for that read-out and setting: for `Cc1cc(Nc2cc3ccccc3cc2O)n2ncnc2n1` [Tz16] the value was 130 nM.
On the same count and under the same terms, for `Cc1cc(Nc2ccc3c(=O)cc(C)oc3c2)n2ncnc2n1` [Tz17] the value was 800 nM.
As to `Cc1cc(Nc2cccc3ccccc23)n2ncnc2n1` [Tz18], the inhibition constant Ki in assay [1] (setting [3]) amounted to 18000 nM.
For `Cc1cc(Nc2ccccc2)n2ncnc2n1` [Tz19], the Ki in assay [1] is 40000 nM.
The same measure, in the same setting: to `Cc1cc(Nc2ccc3cc4ccccc4cc3c2)n2ncnc2n1` [Tz20] belongs 20 nM.
